Data reported in patent US12728126B2, “Compounds for inhibiting LY6K and methods of using same” (The Henry M. Jackson Foundation for the Advancement of …, priority 2020, dated 2026).

Experiments:
[1] = test system: MDA-MB-231 cells; test: Cell-Titer-Blue assay, control vs LY6K knockdown MDA-MB-231 cells; assay type: cell-based
Experimental: (§1) For cell death assay, cells were plated in a black walled 96-well plate and treated with the indicated concentration of drugs for 24 h. Cell-Titer-Blue reagent was added, and the Cytation 5 microplate reader (BioTek, Winooski, VT, USA) was used to measure fluorescence intensity (excitation 560(10) nm, emission 590(20) nm) according to manufacturer's instructions.
To confirm the effect of NSC243928 in LY6K-expressing cells, it was observed the parental control and sh2 LY6K knockdown in MDA-MB-231 cells, a triple negative breast cancer cell line. These cells were generated as previously described. To test the effect of NSC243928 on cell growth, the cells were seeded into 96-well plates and treated with 2 μM of the compound for 24 h. A CTB assay was then performed according to manufacturer's instructions to determine the cell growth.
(§2) Cells were serum starved overnight and then treated with TGF 13 (10 ng/mL) or IFN γ (100 ng/mL) in the presence of 2 μM NSC243928 or NSC11150 for 30 minutes followed by protein analysis using western blot. […] NSC243928 inhibited the TGFβ1 induced phosphorylation of Smad2/3; NSC11150 had no effect on TGFβ1/Smad2/3 signaling. NSC11150 inhibited IFNγ induced phosphorylation of Stat1; NSC243928 had no effect on IFNγ/Stat1 signaling.

[2] = test system: PD-L1; test: PD-L1 measured in live cells after IFN γ treatment; assay type: cell-based; conditions: serum starved, 100 ng/ml IFN γ, 2 μM drug
Experimental: Cells were serum starved and treated with 100 ng/ml IFN γ with 2 μM drugs. PD-L1 was measured in live cells (using a zombie live-dead stain). The graph was plotted from three experiments. A 7.9-fold decrease in the number of cells with high PD-L1 expression was observed.

[3] = test system: 4T1 mouse mammary tumor cells; test: 4T1 syngeneic mammary tumor model, tumor growth in vivo; design: species or system Balb/c mice; conditions: 4T1 model
Experimental: A syngeneic mammary tumor model is used to show the effect of Ly6K small molecule inhibitors on tumor growth in vivo. 4T1 mouse model is an orthotopic allograft model (also called the spontaneous tumor metastasis model). In the 4T1 mouse model, 4T1 mouse mammary tumor cells were injected into the second mammary gland of syngenetic Balb/c mice, and the spontaneous metastasis to the lung were analyzed with a colonogenic assay. 4T1 mice bearing 50-70 mm^3 tumors were treated with NSC243928 or NSC11150 every second day at a dosage of 5 mg/kg in saline. Each group had 10 mice. Tumor measurements were performed using a Vernier caliper. The tumor volumes were calculated using equation ½*length*(width*width).

[4] = test system: TGFβ1/Smad2/3 signaling; test: Western blot of TGFβ1 induced phosphorylation of Smad2/3; assay type: cell-based; conditions: serum starved, TGFβ1 (10 ng/mL), 2 μM, 30 minutes
Experimental: as §2

[5] = test system: IFNγ/Stat1 signaling; test: Western blot of IFNγ induced phosphorylation of Stat1; assay type: cell-based; conditions: serum starved, IFN γ (100 ng/mL), 2 μM, 30 minutes
Experimental: as §2

[6] = test system: PD-L1; test: PD-L1 protein expression in control cells; assay type: cell-based; conditions: 2 μM
[7] = test system: Hs-578-T cells, BT-549 cells, and OVCAR-8 cells; test: In vitro cell growth inhibition in other cancer cell types (FIG. 2); assay type: cell-based
Experimental: as §1
Cell culture and viability assay are as described herein. […] The inhibitory effect of a crystalline form of Compound I on cell growth in vitro is further illustrated in other cancer cells types, including Hs-578-T cells, BT-549 cells, and OVCAR-8 cells (FIG. 2).

## Oc1ccc(Cc2ccc(Cl)cc2)c(O)c1 [Compound II, 4-(4-chlorobenzyl)benzene-1,3-diol]
[1]; 2 μM, 24 h, control cells
  cell death / cell growth in control MDA-MB-231 cells: did not show significant effect on cell death
[1]; 100 μM, Ly6K knockdown cells (data not shown)
  cell death in Ly6K knockdown cells: induced cell death
[1]; 100 μM, control cells (data not shown)
  cell death in control cells: induced cell death
[2]
  inhibitory effect on cells with high expression of PD-L1: showed inhibitory effect
[2]; live cells, three experiments
  decrease in the number of cells with high PD-L1 expression: 7.9 fold
[3]; 5 mg/kg every second day, P<0.005
  day following treatment at which inhibition on tumor growth is statistically significant: 11 days
[3]; 5 mg/kg in saline every second day
  inhibitory effect on tumor growth in vivo: significant inhibitory effects
[4]
  TGFβ1 induced phosphorylation of Smad2/3: had no effect
[5]
  IFNγ induced phosphorylation of Stat1: inhibited
[6]
  PD-L1 protein expression: inhibition of PD-L1 expression

## CCS(=O)(=O)Nc1ccc(Nc2c3ccccc3nc3ccccc23)c(OC)c1 [crystalline form of Compound I, N-(4-(acridin-9-ylamino)-3-methoxyphenyl)ethanesulfonamide]
[7]; crystalline form compared, different concentrations
  inhibitory effect on cell growth at different concentrations (comparison): same or better inhibitory effect
[7]; range over the cell types of FIG. 2
  IC50: 4.17 to 7.65 µM
